The values below come from patent US20050008695A1, “Compositions and methods for delivering a biologically active agent” (Control Delivery Systems, Inc., priority 2003, published 2005).

In general, half-life refers to the time needed for the level to fall by half in the phase considered.

The nature of series [1]: Aqueous solubility compared with constituent drugs. In kind it is physicochemical. Conditions: qualitative comparison with the unlinked drugs.
Series [2] can be described thus: Hydrolysis rate (half-life) in human plasma. In kind it is in vitro ADME. The text has this:
(§1) Hydrolysis Rate (half-life t½)
(§2) Hydrolysis Rate (half life t½)

Series [3] is described as follows: Hydrolysis rate (half-life) in buffer, pH 7.4. In kind it is physicochemical.
From the text: as §1, §2

For series [4] the following is noted: not told.
The nature of series [5]: Lipophilicity compared with constituent drug. In kind it is physicochemical. Conditions: qualitative comparison.
[6] abbreviates: read-out: Hydrolysis Rate (half life t½) In Human Plasma (converted).
Where [7] appears, read: read-out: Hydrolysis Rate (half-life t½) In Buffer, pH7.4 (converted).
Where [8] appears, read: read-out: Hydrolysis Rate (half-life t½) In Human Plasma.

For the compound `CC1(C)O[C@@H]2CC3C4C[C@H](F)C5=CC(=O)C=CC5(C)[C@@]4(F)CCC3(C)[C@]2(C(=O)COC(=O)Cc2ccccc2Nc2c(Cl)cccc2Cl)O1` (stereo partly shown) [Diclofenac-Fluocinolone Acetonide], the “Aqueous / water solubility relative to constituent drug(s)” value in series [1] is on record as “lower solubility under aqueous conditions than either of the constituent drugs”. For the same compound, the half-life in series [2] (setting [6]) is 10100 min; in series [3] (setting [7]) it was 900 min.
For `O=C(O)Cc1ccccc1Nc1c(Cl)cccc1Cl.O=C(O)c1cn(C2CC2)c2cc(N3CCNCC3)c(F)cc2c1=O` [diclofenac-ciprofloxacin codrug], the Permeation result in series [4] is listed as “enhanced permeation”.
Take `O=C(Cc1ccccc1Nc1c(Cl)cccc1Cl)OCCOCCOCCOCCO` [Diclofenac-PEG4]: in series [1], the “Aqueous / water solubility relative to constituent drug(s)” value is “higher water solubility than unionized diclofenac”. For the same compound, the half-life was 10 min in series [2] (setting [8]) and 10100 min in series [3] (read-out: Hydrolysis Rate (half life t½) In Buffer, pH7.4 (converted)). Besides, in series [5], the “Lipophilicity relative to constituent drug” value is recorded as “more lipophilic than the ionized form”.
Take `O=C(Cc1ccccc1Nc1c(Cl)cccc1Cl)OCc1oc(=O)oc1COC(=O)Cc1ccccc1Nc1c(Cl)cccc1Cl` [Diclofenac Dimer]: the results for the half-life in series [2] (setting [8]) and in series [3] (setting [7]) were 6 min and 1500 min, respectively.
In the case of `CC1COc2c(N3CCN(C)CC3)c(F)cc3c(=O)c(C(=O)OCCOCCOC(=O)Cc4ccccc4Nc4c(Cl)cccc4Cl)cn1c23` (stereo not shown) [Diclofenac-Ofloxacin], in series [2] (setting [6]), the half-life is 390 min. For the same compound, the “Hydrolysis Rate (half life t½) In Buffer, pH7.4” value in series [3] (given in words, no number) is “days”. In addition, the “Lipophilicity relative to constituent drug” value in series [5] is given as “more lipophilic than ofloxacin alone”.
